How the values were obtained:
[1] = test system: tumor necrosis factor (TNFα) production in the serum; test: R848 Tolerance Test in Rat; assay type: in vivo; conditions: Lewis rat serum 1 hr after R848 i.p., mean ± S.E.
Experimental: 6-Week-old male LEW/CrlCrlj (Lewis) rats (Japane Charles River Laboratories) were used as 8 rats/group. R848 (Enzo Life Sciences) was dissolved in dimethyl sulfoxide (500 mM), and the concentration of solution was adjusted to 300 μM with saline, and 1.0 mL thereof was intraperitoneally administered in the rat. The compound was orally administered 1 hr before R848 administration. 0.5% Methyl cellulose (5 mL/kg) was orally administered as a control. The blood was collected from the abdominal aorta 1 hr after R848 administration. The blood was left overnight at 4° C., and the serum was collected by centrifugation. The amount of the tumor necrosis factor (TNFα) production in the serum was measured by […] TNF-alpha Quantikine ELISA Kit (R&D Systems). Shirley-Williams test was used for a dose-dependent manner, and p≦0.05 was evaluated as a significance level.

IRAK-4 = target: T1, IRAK-4 (Homo sapiens, UniProt Q9NWZ3); test: IRAK-4 Enzyme Inhibition Test (LANCE method); assay type: biochemical; conditions: compound concentration 1 μM; well without enzyme = 100% inhibition; read-out: IRAK4 enzyme inhibitory rate (%) at 1 μM
T1 construct: purchased Carna Biosciences, Inc
T1 sequence (Q9NWZ3 1-460): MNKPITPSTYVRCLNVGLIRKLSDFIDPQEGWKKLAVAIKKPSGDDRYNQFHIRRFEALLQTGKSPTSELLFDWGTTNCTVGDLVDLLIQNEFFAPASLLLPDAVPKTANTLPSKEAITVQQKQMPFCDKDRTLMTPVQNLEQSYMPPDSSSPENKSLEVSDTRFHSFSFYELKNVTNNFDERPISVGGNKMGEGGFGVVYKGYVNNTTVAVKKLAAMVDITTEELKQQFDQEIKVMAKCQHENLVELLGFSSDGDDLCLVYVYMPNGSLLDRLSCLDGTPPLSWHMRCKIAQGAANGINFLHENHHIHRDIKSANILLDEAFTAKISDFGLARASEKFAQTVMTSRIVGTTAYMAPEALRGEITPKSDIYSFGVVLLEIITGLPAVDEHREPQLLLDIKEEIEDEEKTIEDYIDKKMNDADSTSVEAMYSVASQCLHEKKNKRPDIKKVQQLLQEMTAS
Experimental: IRAK-4 enzyme inhibitory activities of test compounds were measured by LANCE method (PerkinElmer). First, a test compound diluted with assay buffer (50 mM HEPES (pH7.5), 10 mM MgCl2, 1 mM EGTA, 2 mM DTT, 0.01% Tween 20, 0.01% BSA) was added to 384-well plate at 2 μL each. Then, IRAK-4 (Carna Biosciences, Inc.) and a fluorescence-labeled peptide substrate (ULight-ACC peptide, PerkinElmer) solution diluted with assay buffer at 240 ng/mL and 37.5 nM, respectively were added at 2 μL each. Then, enzyme reaction was started by adding 2 μL each of ATP solution prepared with assay buffer at 1.5 mM. After the reaction at room temperature for 1 hr, Detection Buffer (PerkinElmer) prepared to be 20 mM EDTA, 1 nM europium-labeled anti-phospho ACC antibody (PerkinElmer) was added at 6 μL each. After standing at room temperature for 1 hr, fluorescence intensity (excitation wavelength 340 nm, fluorescence wavelength 665 nm, delay time 100 microseconds) was measured by a plate reader, Envision (PerkinElmer). The inhibitory activity of each compound was calculated as relative value where fluorescence intensity of a well without enzyme is considered as 100% inhibition.

NC1-induced nephritis = assay type: in vivo, rat
Experimental: 8-Week-old female WKY rats (Japan Charles River Laboratories) were used as 7 rats/group. Bovine NC1 (The non-collagenous domain of α3 chain of type IV collagen, Chondrex, inc) was dissolved in phosphate buffer to adjust the concentration to 0.3 mg/mL. The equal amount of complete Freund's adjuvant (H37 Ra, Diffco) was added thereto to give an emulsion. The emulsion (0.2 mL) was inoculated intracutaneously into the rat tail head (the 0 day). The compound was orally administered for 5 weeks (the 0 to 35th day, twice a day). 0.5% Methyl cellulose (5 mL/kg) was orally administered as a control. The urine was collected for 4 hr on the −1st day (Pre value) and the 35th day. The collected urine was centrifuged at 400 G, for 5 min at 4° C., the supernatant was kept at −80° C., and the amounts of creatinine and protein were measured. The body weight was measured on the 0th day and the 35th day. A comparison between the groups was analyzed by Dunnett test, and p≦0.05 was evaluated as a significance level.

Row | inhibition at 1 µM (IRAK-4) [%] | SMILES | TNFα production amount ([1]; 0.27 mg/kg orally 1 hr before R848, Control 945 ± 106) [pg/mL] | TNFα production amount ([1]; 0.91 mg/kg orally 1 hr before R848, Control 945 ± 106) [pg/mL] | TNFα production amount ([1]; 2.73 mg/kg orally 1 hr before R848, Control 945 ± 106) [pg/mL] | TNFα production amount ([1]; 9.09 mg/kg orally 1 hr before R848, p ≦ 0.05 vs. Control 945 ± 106) [pg/mL] | TNFα production amount ([1]; 0.3 mg/kg orally 1 hr before R848, Control 1090 ± 137) [pg/mL] | TNFα production amount ([1]; 1 mg/kg orally 1 hr before R848, Control 1090 ± 137) [pg/mL] | TNFα production amount ([1]; 3 mg/kg orally 1 hr before R848, p ≦ 0.05 vs. Control 1090 ± 137) [pg/mL] | TNFα production amount ([1]; 10 mg/kg orally 1 hr before R848, p ≦ 0.05 vs. Control 1090 ± 137) [pg/mL] | Proteinuria (mg/mg Cre 4 hr), Pre (−1st day) (NC1-induced nephritis; WKY rat, 3 mg/kg group, Pre value (−1st day, before immunisation and dosing), mean ± S.E.) [mg/mg Cre 4 hr] | Proteinuria (mg/mg Cre 4 hr), 35th day (NC1-induced nephritis; WKY rat, 3 mg/kg orally twice a day, 0 to 35th day, mean ± S.E., p ≦ 0.05 vs. Control 31.7 ± 4.26) [mg/mg Cre 4 hr] | Body weight difference from the 0th day on the 35th day (g) (NC1-induced nephritis; rat, in vivo, po, 3 mg/kg)
1 | 99 | Cn1cc(NC(=O)c2coc(-c3ccnc(NCC(F)(F)F)c3)n2)c(N2CCNC2=O)n1 [Example 58, N-(1-methyl-3-(2-oxoimidazolidin-1-yl)-1H-pyrazol-4-yl)-2-(2-((2,2,2-trifluoroethyl)amino)pyridin-4-yl)-1,3-oxazole-4-carboxamide] | 1070 ± 160 | 804 ± 116 | 628 ± 31.1 | 326 ± 41.1 | – | – | – | – | – | – | –
2 | 100 | Cn1cc(NC(=O)c2coc(-c3ccnc(NCC(F)(F)F)c3)n2)c(N2CCN(CCO)C2=O)n1 [Example 57, N-(3-(3-(2-hydroxyethyl)-2-oxoimidazolidin-1-yl)-1-methyl-1H-pyrazol-4-yl)-2-(2-((2,2,2-trifluoroethyl)amino)pyridin-4-yl)-1,3-oxazole-4-carboxamide] | – | – | – | – | 1349 ± 181 | 736 ± 76.2 | 306 ± 45.9 | 236 ± 26.8 | 0.32 ± 0.05 | 18.1 ± 2.43 | +63.7 ± 2.8 g
3 | 99 | CN1CCN(c2nn(C)cc2NC(=O)c2coc(-c3ccnc(NCC(F)(F)F)c3)n2)C1=O [Example 48, N-(1-methyl-3-(3-methyl-2-oxoimidazolidin-1-yl)-1H-pyrazol-4-yl)-2-(2-((2,2,2-trifluoroethyl)amino)pyridin-4-yl)-1,3-oxazole-4-carboxamide] | – | – | – | – | – | – | – | – | – | – | –

Reference: patent US9321757B2, “Heterocyclic compound” (Takeda Pharmaceutical Company Limited, priority 2013, dated 2016)
